Results: patent US12252457B2, “Compositions and methods for reducing tactile dysfunction, anxiety, and social impairment” (President and Fellows of Harvard College, priority 2018, dated 2025)
Several values for one entry are separate records, joined by “and”; a condition that tells them apart may be missing. Equal values may be shown once. Entries after “also recorded” stand apart in the source; their conditions may differ. Where a name gives a salt, the structure may show the parent alone.

What was measured:
[1] = test system: genetic and environmental mouse models of ASD; test: Tactile PPI, air puff response and startle amplitude after acute midazolam or isoguvacine in ASD mouse models; assay type: in vivo
Protocol: FIGS. 19A-19N show acute administration of the peripherally-restricted GABAA receptor agonist isoguvacine improves tactile hypersensitivity in five genetic and one environmental model of ASD. […] Two-way ANOVA with post-hoc Sidak's test, *, p<0.05. FIG. 19B: Response to a light air puff stimulus alone in mice following i.p. administration of either saline or 2 mg/kg midazolam treatment. Responses are expressed as percent of startle response to a 125 dB noise. Two-way ANOVA with post-hoc Sidak's test, *, p<0.05. FIG. 19C: Magnitude of startle response to a 125 dB noise in mice following i.p. administration of either saline or 2 mg/kg midazolam treatment. Responses are expressed as percent of startle response to a 125 dB noise. Two-way ANOVA with post-hoc Sidak's test, *, p<0.05. FIG. 19D: Magnitude of startle response to a 125 dB noise in mice following i.p. administration of saline, midazolam (2 mg/kg) or a peripherally-restricted GABAA receptor agonist, isoguvacine (2 mg/kg). Responses are expressed as percent of startle response to a 125 dB noise. Two-way ANOVA with post-hoc Sidak's test, *, p<0.05. FIGS. 19E-19G: Liquid chromatography mass spectrometry (LC-MS) quantified isoguvacine concentrations in cerebrospinal fluid (CSF) (FIG. 19E), blood (FIG. 19F) or liver (FIG. 19G) samples of mice treated with: i.p. saline, i.p. isoguvacine (“Iso.”, 20 mg/kg, samples collected 1, 3 or 24 hours post-injection), intracerebral injection isoguvacine (20 mg/kg, 1 hour post-injection), i.p. diazepam (“DZ”, 20 mg/kg, 1 hour post injection) or intracerebral injection diazepam (20 mg/kg, 1 hour post injection). FIG. 19H: Normalized peak chloride flux through α1β3γ2- and α2β3γ2-containing GABAA receptors in response to isoguvacine application. […] FIGS. 19I-19K: GABAA receptor subunit RNA expression levels across peripheral somatosensory neuron subtypes, for the alpha (FIG. 19I), beta (FIG. 19J), and gamma (FIG. 19K) subunit types. […] Two-way ANOVA with post-hoc Sidak's test, *, p<0.05. FIG. 19M: Response to a light air puff stimulus alone in mice following i.p. administration of either saline or 2 mg/kg isoguvacine treatment. Responses are expressed as percent of startle response to a 125 dB noise. Two-way ANOVA with post-hoc Sidak's test, *, p<0.05. FIG. 19N: Magnitude of startle response to a 125 dB noise in mice following i.p. administration of either saline or 2 mg/kg isoguvacine treatment. Responses are expressed as percent of startle response to a 125 dB noise. Two-way ANOVA with post-hoc Sidak's test, *, p<0.05.
Results of the GABAA receptor restoration experiments raised the possibility that pharmacological treatment with a GABAA receptor agonist may improve tactile reactivity in Mecp2 mutant mice. It was therefore tested whether benzodiazepines, which are positive allosteric modulators (PAMs) of GABAA receptors, would attenuate hairy skin hypersensitivity in Mecp2 mutant mice. Advillin^Cre; Mecp2^f/y mutant mice and their control littermates were administered either vehicle alone or the benzodiazepine midazolam (2 mg/kg, i.p.) in a pseudorandomized manner, and then subjected to tactile PPI. On the following day, treatment regimens were reversed, and tactile PPI was repeated.
While traditional blood-brain barrier (BBB) penetrating benzodiazepines and non-benzodiazepine GABAA receptor PAMs are useful for treating some ASD-related symptoms in patients, including acute anxiety, significant adverse effects including sedation and addictive potential are common (Gudex, 1991). Furthermore, long-term benzodiazepine use is linked to cognitive impairment across multiple domains, including short-term verbal memory and attention (Golombok et al., 1988; Tata et al., 1994), leading to general reluctance within the medical community for prescribing benzodiazepines and other GABAA receptor PAMs to young children (Howes et al., 2018). […]

SNL rats = test: Rat spinal nerve ligation (SNL) model of neuropathic pain, Von Frey 50% paw withdrawal threshold; assay type: in vivo, SD Rat; conditions: for 50% g Threshold, individual animals: 5 mg/kg; for neuropathic pain sensitivity / mechanical hypersensitivity (mechanical allodynia): SNL rats, Von Frey stimulation of hindpaw glabrous skin; for 50% g Threshold, group Mean: n=8
Protocol: Chung surgery were conducted on anesthetized rats. Rats were habituated in the testing environment for 15 minutes before allodynia measurement (2-3 times). Pre-dose baseline were taken on day 9 post surgery. Rats that don't show allodynic response at this point were excluded. SNL rats with a paw withdrawal threshold >4 g. The animals were grouped according to 50% paw withdrawal threshold (g) and weight. The animals were dosed test articles and vehicle according to the dose protocol. On the testing day (Day 9), rats were dosed with testing articles with 16 min interval between groups. Rats were measured for allodynic response at 0.75, 1.5, 3 h time point post dosing. All values will be expressed as mean±S.E.M. The significance of the differences among groups will be evaluated by two-way ANOVA followed by Dunnett's test using graphpad Prism 6 software. A p value of less than 0.05 is considered statistically significant.

[2] = 0 Hour (pre-dose baseline), 5 mpk IP
[3] = printed in the 0.75 Hour column, 5 mpk IP
[4] = printed in the 1.5 Hour column, 5 mpk IP
[5] = printed in the 3 Hour column, 5 mpk IP

O=C(O)C1=CCNCC1 [Isoguvacine, isoguvacine]
hairy skin sensitivity (tactile PPI) ([1]; Advillin^Cre, Gabrb3^f/f mice (homozygous deletion), 2 mg/kg i.p.): no reduction in hairy skin sensitivity | tactile hypersensitivity (tactile PPI performance and responsivity to air puff) ([1]; Advillin^Cre, Mecp2^f/y and Advillin^Cre, Gabrb3^f/+ mutant mice, acute 2 mg/kg i.p.): significantly reduced tactile hypersensitivity; also recorded: improved tactile hypersensitivity | hairy skin hypersensitivity ([1]; Shank3, Fmr1, and Cntnap2 mutant mice, acute 2 mg/kg i.p.): attenuated hairy skin hypersensitivity | hairy skin hypersensitivity ([1]; mice exposed to polyinosinic:polycytidylic acid at E12.5 (maternal immune activation model)): improvement in hairy skin hypersensitivity | Von frey test (MEAN ± S.E.M.) (SNL rats; [2]): 2.3 ± 0.33 g | 50% g Threshold, individual animals (SNL rats; 0 Hour (pre-dose baseline, day 9 post surgery), 5 mpk IP): 0.99 g and 1.10 g and 1.85 g and 2.23 g and 2.81 g and 3.00 g and 3.31 g (2×) | 50% g Threshold, individual animals (SNL rats; 0.75 Hour post dosing, 5 mpk IP): 1.31 g (2×) and 2.37 g (2×) and 2.81 g and 1.56 g (2×) and 0.99 g | Von frey test (MEAN ± S.E.M.) (SNL rats; 0.75 Hour, 5 mpk IP): 1.8 ± 0.23 g | 50% g Threshold, individual animals (SNL rats; 1.5 Hour post dosing, 5 mpk IP): 1.85 g (3×) and 2.37 g and 0.82 g and 2.81 g and 1.56 g and 2.64 g | Von frey test (MEAN ± S.E.M.) (SNL rats; 1.5 Hour, 5 mpk IP): 2.0 ± 0.23 g | 50% g Threshold, individual animals (SNL rats; 3 Hour post dosing, 5 mpk IP): 2.81 g and 6.74 g and 7.91 g and 3.33 g and 5.15 g and 4.34 g and 5.77 g and 3.31 g | Von frey test (MEAN ± S.E.M.) (SNL rats; 3 Hour, 5 mpk IP): 4.9 ± 0.64 g | analgesia effect (SNL rats; 3 hour time point, 5 mpk IP): significant analgesia effect | neuropathic pain sensitivity / mechanical hypersensitivity (mechanical allodynia) (SNL rats): reduce neuropathic pain sensitivity | neuropathic pain sensitivity / mechanical hypersensitivity (mechanical allodynia) (SNL rats; listed as isoguvacine): reduce tactile over-reactivity (mechanical allodynia) | 50% g Threshold, group Mean (SNL rats; [3]): 2.32 g | 50% g Threshold, group Mean (SNL rats; [4]): 1.78 g | 50% g Threshold, group Mean (SNL rats; [5]): 1.97 g

NC1C=C(C(=O)O)CCC1 (stereo not shown) [Compound 5, 3-aminocyclohex-1-enecarboxylic acid hydrochloride]
Von frey test (MEAN ± S.E.M.) (SNL rats; [2]): 2.3 ± 0.34 g | 50% g Threshold, individual animals (SNL rats; 0 Hour (pre-dose baseline, day 9 post surgery), 5 mpk IP, hydrochloride): 0.99 g and 1.10 g and 1.56 g and 2.64 g and 2.81 g (2×) and 3.31 g (2×) | 50% g Threshold, individual animals (SNL rats; 0.75 Hour post dosing, 5 mpk IP, hydrochloride): 3.33 g and 4.12 g and 2.81 g and 1.85 g and 4.34 g and 3.31 g and 2.37 g and 6.74 g | Von frey test (MEAN ± S.E.M.) (SNL rats; 0.75 Hour, 5 mpk IP): 3.6 ± 0.54 g | 50% g Threshold, individual animals (SNL rats; 1.5 Hour post dosing, 5 mpk IP, hydrochloride): 6.74 g (2×) and 5.10 g and 1.85 g and 3.71 g (2×) and 3.31 g and 1.56 g | Von frey test (MEAN ± S.E.M.) (SNL rats; 1.5 Hour, 5 mpk IP): 4.1 ± 0.70 g | 50% g Threshold, individual animals (SNL rats; 3 Hour post dosing, 5 mpk IP, hydrochloride): 6.42 g and 3.33 g and 2.81 g and 2.61 g and 3.71 g and 4.34 g and 0.82 g and 7.91 g | Von frey test (MEAN ± S.E.M.) (SNL rats; 3 Hour, 5 mpk IP): 4.0 ± 0.79 g | neuropathic pain sensitivity / mechanical hypersensitivity (mechanical allodynia) (SNL rats; hydrochloride): reduce tactile over-reactivity (mechanical allodynia) | neuropathic pain sensitivity / mechanical hypersensitivity (mechanical allodynia) (SNL rats; listed as compound 5, hydrochloride): reduce neuropathic pain sensitivity | 50% g Threshold, group Mean (SNL rats; [3]): 2.31 g | 50% g Threshold, group Mean (SNL rats; [4]): 3.61 g | 50% g Threshold, group Mean (SNL rats; [5]): 4.09 g
